{"source": "paper PMC11413853", "about": "“Discovery of VU6007496: Challenges in the Development of an M1 Positive Allosteric Modulator Backup Candidate” (ACS Chemical Neuroscience, 2024)", "key": {"[1]": {"test": "Rat satellite PK study, 3 mg/kg p.o.", "type": "in vivo", "conditions": "3 mg/kg p.o. (NOR MED)", "from_the_text": "Historically, our PK/PD for M1 PAMs in NOR has a strong correlation with total brain as opposed to unbound levels, with MEDs typically 0.25 to 0.4 of the rat EC50.[21] This may be due to higher endogenous cholinergic tone in healthy animals, and the in vitro PAM EC50s being derived from an arbitrarily selected EC20 concentration of ACh as a subthreshold value."}, "CYP3A4": {"tested_on": "CYP3A4", "test": "CYP induction (mRNA) in cryopreserved human hepatocytes, CYP3A4", "type": "in vitro ADME", "conditions": "three donors", "from_the_text": "To advance 11 as a candidate and into IND-enabling studies, we next needed to better understand its CYP profile to minimize drug–drug interactions in the clinic. […] We were pleased to see the contribution of another CYP beyond 3A4 for the metabolism of 11.[21] In parallel, we investigated the ability of PAM 11 to induce the expression of CYP450s (measuring mRNA) in cryopreserved human hepatocytes from three separate donors."}, "MET ID in rat liver S9": {"test": "MET ID in rat liver S9", "type": "in vitro ADME", "conditions": "based on MS peak areas", "from_the_text": "Eight oxidative metabolites were identified, with the major metabolite in both rat and human being Metabolite A (VU6036463, 24), the result of oxidative N-demethylation of the southern pyrazole (Scheme 4). The majority of other oxidative metabolism occurred on the tetrahydropyran moiety and included ring opening, but there was no amide hydrolysis observed.[21]"}, "Hepatocyte MET ID, dog": {"test": "Hepatocyte MET ID, dog", "type": "in vitro ADME", "conditions": "4-h incubation", "from_the_text": "(§1) More concerning were the results generated via outsourced multispecies hepatocyte MET ID, which were drastically different than the liver S9MET ID. The extent of metabolism for VU6007496 with rat, dog, monkey and human hepatocytes was 64.7, 51.5, 63.9 and 99.5%, respectively (Figure 8). […] In human hepatocytes, PAM 11 was metabolized primarily to Metabolite A (24), the result of oxidative N-demethylation of the southern pyrazole. The other minor metabolites were oxidation on the tetrahydropyran moiety and included ring opening (Metabolite F, 25).[21]"}, "[2]": {"test": "Hepatocyte MET ID, monkey", "type": "in vitro ADME", "conditions": "4-h incubation", "from_the_text": "as §1"}, "Hepatocyte MET ID, mouse": {"test": "Hepatocyte MET ID, mouse", "type": "in vitro ADME", "from_the_text": "We typically would not examine mouse hepatocyte MET ID, as mouse was not a safety species for the IND-enabling toxicology package, but with the unusual metabolism profile for human, and the lack of predictive cholinergic tox in the mouse phenotypic assay, we felt this was worthy of exploration. […] Clearly, based on the hepatocyte data, there is a tremendous difference in the concentration of parent 11 and metabolite composition, which sheds light on the mouse-rat disconnect for observed cholinergic toxicity in rat versus the more cholinergic sensitive mouse."}, "[3]": {"test": "Rat dose escalation study (p.o., 30% captisol)", "type": "in vivo", "conditions": "for Cmax: brain, read-out: total brain concentration at Cmax", "experimental": "While awaiting more definitive MET ID studies in multispecies hepatocytes, we elected to perform a rat dose escalation study to assess exposures in a standard, tox-friendly oral vehicle (30% captisol) to lay the foundation for dose range finding/maximum tolerated dose (DRF/MTD) studies. Male Sprague–Dawley rats were dosed with VU6007496 (11) at doses of 3, 10, 30, 100, and 300 mg/kg p.o. in 30% captisol. […]. […] Recall, exposures in rat at the NOR MED were 990 nM total and 39.8 nM unbound brain concentrations, respectively. […]"}, "Adenosine A3": {"tested_on": "Adenosine A3", "test": "Eurofins radioligand binding", "design": "species or system Human", "conditions": "specific binding"}, "Adrenergic β2": {"tested_on": "Adrenergic β2", "test": "Eurofins radioligand binding", "design": "species or system Human", "conditions": "specific binding"}, "Calcium Channel N-Type": {"tested_on": "Calcium Channel N-Type", "test": "Eurofins radioligand binding", "design": "species or system Rat", "conditions": "specific binding"}, "Dopamine D4.4": {"tested_on": "Dopamine D4.4", "test": "Eurofins radioligand binding", "design": "species or system Human", "conditions": "specific binding"}, "[4]": {"tested_on": "Epidermal Growth Factor (EGF)", "test": "Eurofins radioligand binding", "design": "species or system Human", "conditions": "specific binding"}, "Estrogen ERα": {"tested_on": "Estrogen ERα", "test": "Eurofins radioligand binding", "design": "species or system Human", "conditions": "specific binding"}, "[5]": {"tested_on": "GABAA, Flunitrazepam, Central", "test": "Eurofins radioligand binding", "design": "species or system Rat", "conditions": "specific binding"}, "Glucocorticoid": {"tested_on": "Glucocorticoid", "test": "Eurofins radioligand binding", "design": "species or system Human", "conditions": "specific binding"}, "Glutamate, NMDA, Glycine": {"target": "Glutamate, NMDA, Glycine (Rattus norvegicus, UniProt P35439)", "sequence (P35439 394-800 limits assumed)": "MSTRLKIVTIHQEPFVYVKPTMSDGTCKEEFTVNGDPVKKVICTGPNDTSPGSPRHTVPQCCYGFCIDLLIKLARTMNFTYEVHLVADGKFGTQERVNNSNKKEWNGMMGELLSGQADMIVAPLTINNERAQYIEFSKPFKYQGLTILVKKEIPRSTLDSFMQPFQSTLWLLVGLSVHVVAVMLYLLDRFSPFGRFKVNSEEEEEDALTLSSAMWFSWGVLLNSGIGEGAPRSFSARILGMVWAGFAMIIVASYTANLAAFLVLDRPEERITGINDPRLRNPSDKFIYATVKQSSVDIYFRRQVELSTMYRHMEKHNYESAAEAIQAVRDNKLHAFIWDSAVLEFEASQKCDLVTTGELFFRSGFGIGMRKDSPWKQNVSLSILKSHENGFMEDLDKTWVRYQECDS", "test": "Eurofins radioligand binding", "conditions": "specific binding"}, "Histamine H3": {"tested_on": "Histamine H3", "test": "Eurofins radioligand binding", "design": "species or system Human", "conditions": "specific binding"}, "Opiate μ (OP3, MOP)": {"tested_on": "Opiate μ (OP3, MOP)", "test": "Eurofins radioligand binding", "design": "species or system Human", "conditions": "specific binding"}, "Potassium Channel [KATP]": {"tested_on": "Potassium Channel [KATP]", "test": "Eurofins radioligand binding", "design": "species or system Hamster", "conditions": "specific binding"}, "Rolipram": {"tested_on": "Rolipram", "test": "Eurofins radioligand binding", "design": "species or system Rat", "conditions": "specific binding"}, "Serotonin (5-HT1A)": {"tested_on": "Serotonin (5-HT1A)", "test": "Eurofins radioligand binding", "design": "species or system Human", "conditions": "specific binding"}, "Serotonin (5-HT2B)": {"tested_on": "Serotonin (5-HT2B)", "test": "Eurofins radioligand binding", "design": "species or system Human", "conditions": "specific binding"}, "[6]": {"tested_on": "Transporter, Dopamine (DAT)", "test": "Eurofins radioligand binding", "design": "species or system Human", "conditions": "specific binding"}, "Transporter, GABA": {"tested_on": "Transporter, GABA", "test": "Eurofins radioligand binding", "design": "species or system Rat", "conditions": "specific binding"}}, "note": "Where two headings read alike, the source gives them in different places."}
{"smiles": "Cn1ccc(-c2ccc(Cc3cc(C(=O)NC4CCOCC4)nc4ccn(C)c34)cc2)n1", "note": "[compound 11]", "values": [{"measurement": "total brain concentration", "setting": "[1]", "result": 990, "unit": "nM"}, {"measurement": "unbound brain concentration", "setting": "[1]", "result": 0.0398, "unit": "µM"}, {"measurement": "CYP3A4 induction (mRNA)", "setting": "CYP3A4", "result": "~21", "unit": "fold"}, {"measurement": "extent of metabolism, rat liver S9", "setting": "MET ID in rat liver S9", "result": 36.8, "unit": "%"}, {"measurement": "extent of metabolism, dog hepatocytes", "setting": "Hepatocyte MET ID, dog", "result": 51.5, "unit": "%"}, {"measurement": "extent of metabolism, monkey hepatocytes", "setting": "[2]", "result": 63.9, "unit": "%"}, {"measurement": "extent of metabolism, mouse hepatocytes", "setting": "Hepatocyte MET ID, mouse", "result": 95.4, "unit": "%"}, {"measurement": "Cmax", "setting": "[3]; male, Sprague-Dawley, po, rat, 100 mg/kg p.o.", "result": 9.1, "unit": "µM"}, {"measurement": "Cmax", "setting": "[3]; male, Sprague-Dawley, po, rat, 300 mg/kg p.o.", "result": 17.2, "unit": "µM"}, {"measurement": "Tmax", "setting": "[3]; male, Sprague-Dawley, in vivo, po, rat, 3, 10, 30, 100, and 300 mg/kg p.o., all doses", "result": "< 2", "unit": "h"}, {"measurement": "fold over the NOR MED exposure", "setting": "[3]; rat, 100 mg/kg p.o.", "result": "~9", "unit": "fold"}, {"measurement": "unbound brain concentration at Cmax", "setting": "[3]; rat, 100 mg/kg p.o.", "result": 0.298, "unit": "µM"}, {"measurement": "fold over the NOR MED exposure", "setting": "[3]; rat, 300 mg/kg p.o.", "result": "~17", "unit": "fold"}, {"measurement": "unbound brain concentration at Cmax", "setting": "[3]; rat, 300 mg/kg p.o.", "result": 0.569, "unit": "µM"}, {"measurement": "adverse cholinergic events", "setting": "[3]; rat, 100 and 300 mg/kg p.o. dose groups, after 4.5 h", "result": "severe adverse cholinergic events"}, {"measurement": "dose proportionality of exposure", "setting": "[3]; rat, from 3 to 30 mg/kg p.o.", "result": "Linear dose escalation"}, {"measurement": "cholinergic toxicity", "setting": "[3]; rats, 30 mg/kg p.o.", "result": "not observed"}, {"measurement": "window from the MED", "setting": "[3]; rats, 30 mg/kg p.o. vs MED 3 mg/kg", "result": 10, "unit": "fold"}, {"measurement": "% Inhibition at 10 µM", "setting": "Adenosine A3", "result": 38, "unit": "%"}, {"measurement": "% Inhibition at 10 µM", "setting": "Adrenergic β2", "result": 7, "unit": "%"}, {"measurement": "% Inhibition at 10 µM", "setting": "Calcium Channel N-Type", "result": 8, "unit": "%"}, {"measurement": "% Inhibition at 10 µM", "setting": "Dopamine D4.4", "result": 1, "unit": "%"}, {"measurement": "% Inhibition at 10 µM", "setting": "[4]", "result": 5, "unit": "%"}, {"measurement": "% Inhibition at 10 µM", "setting": "Estrogen ERα", "result": 5, "unit": "%"}, {"measurement": "% Inhibition at 10 µM", "setting": "[5]", "result": -3, "unit": "%"}, {"measurement": "% Inhibition at 10 µM", "setting": "Glucocorticoid", "result": 5, "unit": "%"}, {"measurement": "inhibition at 10 µM", "setting": "Glutamate, NMDA, Glycine", "result": 0, "unit": "%"}, {"measurement": "% Inhibition at 10 µM", "setting": "Histamine H3", "result": -12, "unit": "%"}, {"measurement": "% Inhibition at 10 µM", "setting": "Opiate μ (OP3, MOP)", "result": -4, "unit": "%"}, {"measurement": "% Inhibition at 10 µM", "setting": "Potassium Channel [KATP]", "result": 11, "unit": "%"}, {"measurement": "% Inhibition at 10 µM", "setting": "Rolipram", "result": 10, "unit": "%"}, {"measurement": "% Inhibition at 10 µM", "setting": "Serotonin (5-HT1A)", "result": 7, "unit": "%"}, {"measurement": "% Inhibition at 10 µM", "setting": "Serotonin (5-HT2B)", "result": 7, "unit": "%"}, {"measurement": "% Inhibition at 10 µM", "setting": "[6]", "result": 13, "unit": "%"}, {"measurement": "% Inhibition at 10 µM", "setting": "Transporter, GABA", "result": -17, "unit": "%"}]}
